Source: patent US20020052000A1, “Diagnostics for and mediators of inflammatory disorders” (priority 1996, published 2002)

Legend:
ICAM-1 [1] = assay: Cell surface ICAM-1 expression on HAEC by ELISA; assay type: cell-based, human; conditions: for induction of cell surface ICAM expression: HAEC exposed 16 hr
Experimental: In a small scale synthesis reaction, sLO converted 250 uM linoleic acid (LA) into 13-HpODE within the first hour of room temperature incubation. During the subsequent 3 days incubation, 13-HpODE presumably oxidatively modified the enzyme and generating epitopes on the enzyme which can elicit biological s activity such as the expression of cell surface ICAM on HAEC as shown in ELISA assay depicted in FIG. 11. […] In the large scale synthesis reaction, only in the presence of the 13-HpODE generating system did the sLO become active as shown in FIG. 12. sLO negative control represented the sLO enzyme incubated with buffer alone for the extended period of time. We have confirmed the oxSLO synthesized by either method are functionally and immunologically identical. Furthermore, we have determined that formation of a biologically activity is protein specific. Reaction of rabbit serum albumin using the large or small scale oxykine reaction generates immunoreactive but not biologically active products.
(§1) It was investigated whether the oxidative modification of rabbit serum albumin RSA by linoleic hydroperoxide alters the structural or biological property of an element (peptide or nonpeptide) in this material, conferring upon it a biological function as a vascular endothelial cell inflammatory signal. Using oxidatively modified RSA (oxRSA) prepared as described in Example 1, cultured human aortic endothelial cells were exposed for 12 hours with a range of oxRSA concentrations from 1 to 100 nM (nanomolar), and assayed for the cell surface expression of the inducible adhesion molecules VCAM-1, ICAM-1 or the constituitively expressed adhesion molecule ICAM-2 by ELISA assay. […] Furthermore, limulus assay for LPS in the oxRSA preparation was below detection. Constituitively expressed ICAM-2 was unaffected.

VCAM-1 [2] = conditions: cited from earlier work; for induction of cell-surface expression of VCAM-1: human aortic endothelial cells
ICAM-1 [3] = conditions: human aortic endothelial cells; cited from earlier work
E-selectin = conditions: human aortic endothelial cells; cited from earlier work
anti-LOOH/RSA antibody = assay: ELISA recognition of modified proteins/peptides by anti-LOOH/RSA antibody; assay type: binding, rabbit
Experimental: Using ELISA, it was investigated whether the LOOH/RSA antibody recognized the LOOH/modified protein and unmodified protein. Unmodified IgG-free RSA was used as control. incubation at 37° C., wells were washed with PBS three times. Goat anti-rabbit IgG conjugated with alkaline phosphatase was diluted to 1:38,000 and added. After 2 hrs incubation at 37 °C, wells were washed again and p-nitrophenolphosphate was added. Color development was determined by a plate reader (Anthos II).
Microtiter wells were coated with increasing concentrations of unmodified, or modified peptide. After blocking wells with non-fat milk powder, 100 μl of 1:250 dilution of anti-LOOH/RSA antibody was added to each well. After wash, anti-rabbit IgG conjugated with alkaline phosphatase was added to each well. After adding substrate p-nitrophenyl phosphate, the OD was measured at 405 nm using a microplate reader. Values represent averages of a triplicate set of optical density readings of wells from one of at least 2 separate trials. 20 Western blot analysis of the aldehyde- and LOOH-modified peptide confirmed that none of the aldehyde-modified synthetic proteins were recognized to any significant extent, whereas LOOH-modified peptide was recognized by the antibody.

VCAM-1 [4] = assay: Cell surface VCAM-1 expression on HAEC by ELISA; assay type: cell-based, human
From the text: (§2) The ELISA data is supported by the Northern Blot data as illustrated in FIG. 15. […] Within 2-6 hr of stimulation, the mRNA level of the indicated genes all reached a steady state.
as §1

ICAM-2 = assay: Cell surface ICAM-2 expression on HAEC by ELISA; assay type: cell-based, human; conditions: 12 hours
Experimental: as §1

VCAM-1 mRNA = assay: Northern blot VCAM-1 mRNA accumulation in HAEC; assay type: cell-based, human
Experimental: as §2
(§3) It was next investigated whether the induction of VCAM-1 and ICAM-1 cell surface expression by ox-RSA is due at least in part to changes in mRNA accumulation. Northern filter analysis was performed from RNA isolated from HAEC exposed for 4 hours With either TNFa (100 U/ml) or oxRSA (25 nM). Similar to that observed at the protein level, VCAM-mRNA levels were induced by ox-RSA to levels approximately 30-40% observed for TNFa.

ICAM-1 mRNA = assay: Northern blot ICAM-1 mRNA accumulation in HAEC; assay type: cell-based, human
Experimental: as §2, §3

[5] = system: NF-kB like DNA binding activity; assay: Gel mobility shift assay, NF-kB-like binding sites of VCAM-1 promoter; assay type: cell-based, human; conditions: HAEC, two hours; TNFa 100 U/ml or oxRSA 25 nM
Experimental: To determine whether oxRSA modulated nuclear regulatory events associated with redox sensitive VCAM-1 gene expression, cultured human aortic endothelial cells were exposed or not (CTL) for two hours to TNFa (100 U/ml) or 25 nM of the oxykine RSA-LOOH (oxRSA), nuclear extracts prepared and gel mobility shift assays performed using 32P-labeled kL0kR, the tandem NF-kB-like binding sites of the human VCAM-1 promoter. Appropriate cold competitor and supershift controls using anti-p50 and anti-p65 antisera (R&D Systems) were performed to establish the DNA sequence binding specificity of the NF-kB complex band. Both TNF and oxRSA inducted NF-kB like DNA binding activity.

MCP-1 mRNA = assay: Northern blot MCP-1 mRNA accumulation in HAEC; assay type: cell-based, human
From the text: as §2

[6] = VCAM-1 and ICAM-1 induction, polymyxin B 10 ug/ml

Molecule: O=C(O)CN(CCN(CC(=O)O)CC(=O)O)CC(=O)O [EDTA]
- effect of addition on ICAM-1 induction by the oxykine (ICAM-1 [1]): no effect

Molecule: CCCCC/C=C\C/C=C\CCCCCCCC(=O)O [LA, linoleic acid]
- induction of cell surface ICAM expression (ICAM-1 [1]): did not become active
- induction of cell-surface expression of VCAM-1 (VCAM-1 [2]): induce
- induction of cell-surface expression of ICAM-1 (ICAM-1 [3]): not
- induction of cell-surface expression of E-selectin (E-selectin): not

Molecule: S=C(S)N1CCCC1 [PDTC, pyrrolidine dithiocarbamate]
- effect on induction of VCAM-1 by PUFAs and their fatty acid hydroperoxides (VCAM-1 [2]): suppressed

Molecule: Cc1c(C)c2c(c(C)c1O)CCC(C)(C(=O)O)O2 (centres unmarked) [Trolox]
- effect of addition on ICAM-1 induction by the oxykine (ICAM-1 [1]): no effect

Molecule: CCCCC/C=C\C/C=C\C/C=C\C/C=C\CCCC(=O)O [arachidonic acid]
- induction of cell-surface expression of VCAM-1 (VCAM-1 [2]): induce
- induction of cell-surface expression of ICAM-1 (ICAM-1 [3]): not
- induction of cell-surface expression of E-selectin (E-selectin): not

Molecule: CCCCCCCC/C=C\CCCCCCCC(=O)O [oleic acid]
- induction of cell-surface expression of VCAM-1 (VCAM-1 [2]): do not induce
- induction of cell-surface expression of ICAM-1 (ICAM-1 [3]): do not induce
- induction of cell-surface expression of E-selectin (E-selectin): do not induce

Molecule: CC(C)(Sc1cc(C(C)(C)C)c(O)c(C(C)(C)C)c1)Sc1cc(C(C)(C)C)c(O)c(C(C)(C)C)c1 [probucol]
- effect of addition on ICAM-1 induction by the oxykine (ICAM-1 [1]): no effect

Molecule: CCCCCCCCCCCCCCCCCC(=O)O [stearic acid]
- induction of cell-surface expression of VCAM-1 (VCAM-1 [2]): do not induce
- induction of cell-surface expression of ICAM-1 (ICAM-1 [3]): do not induce
- induction of cell-surface expression of E-selectin (E-selectin): do not induce

Molecule: RSA: unmodified IgG-free rabbit serum albumin used as control
- recognition by the antibody in ELISA (anti-LOOH/RSA antibody): barely recognized

Molecule: YVTKSYNETKIKFDKYKAKSHEDEL [Native peptide]
- recognition by the antibody in ELISA (anti-LOOH/RSA antibody): failed to recognize

Molecule: linoleyl 194 hydroperoxide
- induction of cell-surface expression of VCAM-1 (VCAM-1 [2]): induce
- induction of cell-surface expression of ICAM-1 (ICAM-1 [3]): not
- induction of cell-surface expression of E-selectin (E-selectin): not

Molecule: oxRSA: rabbit serum albumin oxidatively modified by linoleic hydroperoxide (13-HPODE), Example 1
- concentration corresponding to least amount recognized (anti-LOOH/RSA antibody): < 2 nM
- least amount recognized by the antibody (anti-LOOH/RSA antibody; antibody 1:250, above control protein): 10 ng
- induction of ICAM-1 as percent of maximal TNF-a induced signal (ICAM-1 [1]; HAEC, 12 hours, 1 to 100 nM): 80%
- EC50 (ICAM-1 [1]; HAEC, 12 hours, read-out: approximate EC50 for ICAM-1 induction): 10 to 15 nM
- induction of VCAM-1 as percent of maximal TNF-a induced signal (VCAM-1 [4]; HAEC, 12 hours, 1 to 100 nM): 40%
- EC50 (VCAM-1 [4]; HAEC, 12 hours, read-out: approximate EC50 for VCAM-1 induction): 10 to 15 nM
- effect on constitutively expressed ICAM-2 (ICAM-2): unaffected
- VCAM-mRNA level relative to that observed for TNFa (VCAM-1 mRNA; 4 hours, 25 nM, TNFa 100 U/ml): 30-40%
- ICAM-1 mRNA induction (ICAM-1 mRNA; 4 hours, 25 nM): induced
- NF-kB like DNA binding activity [5]: inducted

Molecule: polymyxin B
- effect on LPS induction (VCAM-1 [4]; [6]): fully inhibited
- effect on oxRSA activation (VCAM-1 [4]; [6]): no effect

B1: soybean lipoxygenase (protein, UniProt P08170 1-839, looked up)
Seed linoleate …: MFSAGHKIKGTVVLMPKNELEVNPDGSAVDNLNAFLGRSVSLQLISATKADAHGKGKVGKDTFLEGINTSLPTLGAGESAFNIHFEWDGSMGIPGAFYIKNYMQVEFFLKSLTLEAISNQGTIRFVCNSWVYNTKLYKSVRIFFANHTYVPSETPAPLVSYREEELKSLRGNGTGERKEYDRIYDYDVYNDLGNPDKSEKLARPVLGGSSTFPYPRRGRTGRGPTVTDPNTEKQGEVFYVPRDENLGHLKSKDALEIGTKSLSQIVQPAFESAFDLKSTPIEFHSFQDVHDLYEGGIKLPRDVISTIIPLPVIKELYRTDGQHILKFPQPHVVQVSQSAWMTDEEFAREMIAGVNPCVIRGLEEFPPKSNLDPAIYGDQSSKITADSLDLDGYTMDEALGSRRLFMLDYHDIFMPYVRQINQLNSAKTYATRTILFLREDGTLKPVAIELSLPHSAGDLSAAVSQVVLPAKEGVESTIWLLAKAYVIVNDSCYHQLMSHWLNTHAAMEPFVIATHRHLSVLHPIYKLLTPHYRNNMNINALARQSLINANGIIETTFLPSKYSVEMSSAVYKNWVFTDQALPADLIKRGVAIKDPSTPHGVRLLIEDYPYAADGLEIWAAIKTWVQEYVPLYYARDDDVKNDSELQHWWKEAVEKGHGDLKDKPWWPKLQTLEDLVEVCLIIIWIASALHAAVNFGQYPYGGLIMNRPTASRRLLPEKGTPEYEEMINNHEKAYLRTITSKLPTLISLSVIEILSTHASDEVYLGQRDNPHWTSDSKALQAFQKFGNKLKEIEEKLVRRNNDPSLQGNRLGPVQLPYTLLYPSSEEGLTFRGIPNSISI
notes: unmodified soybean lipoxygenase, negative control
- induction of cell surface ICAM expression (ICAM-1 [1]): did not become active
- induction of cell surface ICAM expression (ICAM-1 [1]; listed as unmodified sLO): failed to activate
- VCAM-1 mRNA (VCAM-1 mRNA; 0.008 ug/ml): −0.14 arbitrary units
- VCAM-1 mRNA (VCAM-1 mRNA; 0.08 ug/ml): 0.12 arbitrary units
- VCAM-1 mRNA (VCAM-1 mRNA; 0.8 ug/ml): 3.36 arbitrary units
- VCAM mRNA accumulation (VCAM-1 mRNA; Northern blot, 4 hr): not
- ICAM-1 mRNA (ICAM-1 mRNA; 0.008 ug/ml): −0.51 arbitrary units
- ICAM-1 mRNA (ICAM-1 mRNA; 0.08 ug/ml): −0.09 arbitrary units
- ICAM-1 mRNA (ICAM-1 mRNA; 0.8 ug/ml): 3.14 arbitrary units
- MCP-1 mRNA (MCP-1 mRNA; 0.008 ug/ml): 1.12 arbitrary units
- MCP-1 mRNA (MCP-1 mRNA; 0.08 ug/ml): 3.1 arbitrary units
- MCP-1 mRNA (MCP-1 mRNA; 0.8 ug/ml): 12.34 arbitrary units
- MCP-1 mRNA accumulation (MCP-1 mRNA; Northern blot): not
